In patent US20240174690A1, “ANNULATED 2-AMINO-3-CYANO THIOPHENES AND DERIVATIVES FOR THE TREATMENT OF CANCER” (BOEHRINGER INGELHEIM INTERNATIONAL GMBH, priority 2021, published 2024):

Columns and labels:
[1] = tested on: KRAS G12V-dependent Ba/F3 cells; experiment: Ba/F3 proliferation assay, KRAS G12V; format: cell-based; conditions: Mus musculus, BaF3, 72 h, AlamarBlue;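 further: proliferation IC50 in KRAS G12V-dependent Ba/F3 cells read by AlamarBlue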
Outline: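 Cells: murine Ba/F3 transduced with mutant KRAS by retrovirus, selected with 1 μg/mL puromycin, then weaned off IL-3. Compound exposure in duplicate, followed by AlamarBlue viability staining and curve fitting.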

SK-CO-1 cells = experiment: SK-CO-1 CTG proliferation assay (120 h) (CRC, G12V); format: cell-based; conditions: Homo sapiens; SK-CO-1 cells (CRC, G12V), CTG 120 h
Outline: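 Compound exposure lasted 120 h in KRAS G12V SK-CO-1 cells seeded overnight at 500 cells/well in 10% FCS EMEM. CellTiter-Glo RLU normalised to DMSO wells gave percent viability, and a four-parameter model fit yielded IC50.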

[2] = Plasma protein binding assay (PPB), equilibrium dialysis, 10% FCS in PBS; format: in vitro ADME; conditions: bovine, read-out: PPB 10% FCS (% fu)
Outline: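 Test compound (1-10 μmol/L) in 10% FCS in PBS was dialysed for 3-5 h at 37° C versus PBS ± dextran across a semipermeable membrane. LC-MS of both compartments after protein precipitation gave Cserum and Cbuffer, from which the unbound fraction fu was derived.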

CYP3A4 = CYP3A4 (Homo sapiens (Human), UniProt P08684); experiment: Mechanism based inhibition of CYP3A4 assay (MBI 3A4); format: in vitro ADME; conditions: hydroxy-midazolam formation after 30 min vs 0 min preincubation, 25 uM, human liver microsomes
Outline: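 Readout is hydroxy-midazolam formed after 30 min preincubation relative to 0 min, measured by LC/MS-MS after acetonitrile quench. Following preincubation, samples diluted 1:10 and incubated 15 min with midazolam substrate.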

[3] = Caco-2 assay (permeability PappAB, PappBA, efflux ratio); format: in vitro ADME; conditions: human, Caco-2, 10 μM test compound, pH 7.4; for efflux ratio at 90 min, 10 μM: efflux ratio PappBA/PappAB, read-out: Caco ER; for Papp A→B at 90 min, 10 μM: apical to basolateral
Outline: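 Bidirectional permeability (apical-to-basolateral and reverse) through polarized Caco-2 monolayers, BSA 0.25% on each side, 37 °C. Donor and receiver sampled at 0-90 min after 25-30 min preincubation, analysed by HPLC/MS/MS. Apparent permeabilities derived from transfer rate normalised to area and t=0 donor concentration; ER taken as PappBA over PappAB.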

Chain of CYP3A4 (P08684 whole entry): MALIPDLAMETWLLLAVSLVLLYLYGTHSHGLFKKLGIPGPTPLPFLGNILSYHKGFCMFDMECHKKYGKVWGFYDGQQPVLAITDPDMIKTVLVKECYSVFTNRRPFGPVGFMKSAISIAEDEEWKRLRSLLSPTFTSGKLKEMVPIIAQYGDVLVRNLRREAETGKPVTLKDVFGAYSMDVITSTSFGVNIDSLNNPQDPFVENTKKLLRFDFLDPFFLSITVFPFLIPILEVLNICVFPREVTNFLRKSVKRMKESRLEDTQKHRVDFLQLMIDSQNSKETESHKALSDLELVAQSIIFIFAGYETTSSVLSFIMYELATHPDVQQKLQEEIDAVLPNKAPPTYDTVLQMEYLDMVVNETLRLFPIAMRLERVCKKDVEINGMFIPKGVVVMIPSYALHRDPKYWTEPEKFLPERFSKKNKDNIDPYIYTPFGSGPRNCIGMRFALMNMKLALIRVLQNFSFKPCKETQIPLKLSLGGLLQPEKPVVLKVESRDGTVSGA

IC50 [1] [nM]	IC50 (SK-CO-1 cells) [nM]	fraction unbound [2]	MBI 3A4 (CYP3A4) [%]	efflux ratio at 90 min, 10 μM [3]	Papp A→B at 90 min, 10 μM [3] [×10⁻⁶ cm/s]	SMILES
13	126	0.01	67	0.5		C[C@H](Oc1cc(-n2ccc(Br)n2)nc(-c2noc3c2CCC[C@@]32CCCc3sc(N)c(C#N)c32)n1)[C@@H]1CCCN1C [II-110]
4	51	0.11	76	1.5		C[C@H](Oc1cc(-c2cnsc2)nc(-c2noc3c2CCC[C@@]32CCCc3sc(N)c(C#N)c32)n1)[C@@H]1CCCN1C [II-111]
6	34	0.41	81	5.6	5.9	C[C@H](O)Cn1ccc(-c2cc(O[C@@H](C)[C@@H]3CCCN3C)nc(-c3noc4c3CCC[C@@]43CCCc4sc(N)c(C#N)c43)n2)n1 [II-112]
7	64	0.07	85	0.9		COC(=O)c1ccc(-c2cc(O[C@@H](C)[C@@H]3CCCN3C)nc(-c3noc4c3CCC[C@@]43CCCc4sc(N)c(C#N)c43)n2)o1 [II-114]
6	24	0.19	77	20.7	1.4	C[C@H](Oc1cc(-c2ccn(C[C@@H](C)O)n2)nc(-c2noc3c2CCC[C@@]32CCCc3sc(N)c(C#N)c32)n1)[C@@H]1CCCN1C [II-117]
26	3860	0.08	45	0.7		C[C@H](Oc1cc(-n2cc(C3CC3)nn2)nc(-c2noc3c2CCC[C@@]32CCCc3sc(N)c(C#N)c32)n1)[C@@H]1CCCN1C [II-118]
6	37	0.04	52	1.1	1	C[C@H](Oc1cc(-n2ccc(-c3ccccn3)n2)nc(-c2noc3c2CCC[C@@]32CCCc3sc(N)c(C#N)c32)n1)[C@@H]1CCCN1C [II-119]
13	126	0.24	71	1.5	8	C[C@H](Oc1cc(-n2ccnc2)nc(-c2noc3c2CCC[C@@]32CCCc3sc(N)c(C#N)c32)n1)[C@@H]1C[C@@H](F)CN1C [II-120]
11	57	0.4	56	3.7	6.3	COCc1cn(-c2cc(O[C@@H](C)[C@@H]3CCCN3C)nc(-c3noc4c3CCC[C@@]43CCCc4sc(N)c(C#N)c43)n2)nn1 [II-121]
10	52	0.44	68	3.2	7.9	CNC(=O)c1cn(-c2cc(O[C@@H](C)[C@@H]3CCCN3C)nc(-c3noc4c3CCC[C@@]43CCCc4sc(N)c(C#N)c43)n2)nn1 [II-122]
24	96	0.11	64	4.6		C[C@H](Oc1cc(-n2cc(-c3cccnc3)nn2)nc(-c2noc3c2CCC[C@@]32CCCc3sc(N)c(C#N)c32)n1)[C@@H]1CCCN1C [II-123]
